Test results from patent US4339439A, “Pharmaceutical methods and compositions” (Bristol-Myers Company, priority 1981, dated 1982).
Entries after “also recorded” stand apart in the source; their conditions may differ. Read-outs that look alike come from different tables or passages of the source. Non-standard residues stand in square brackets, D forms with d. Residues, ends and D or L forms follow the SMILES beside them. *: point of attachment. Sta = CC(C)C[C@H](N)[C@@H](O)CC(=O)O; Isovaleryl = CC(C)CC(=O)*

Experiments:
stress ulceration = conditions: two or more days of pretreatment; Strauss et al. 1977; cited from earlier work
gastric acid secretion [1] = conditions: cited from earlier work
[2] = system: gastric erosions produced in rats by the oral instillation of 1.0 ml of 0.75 N HCl; test: HCl-induced gastric erosions in rats (modified method of Robert et al.); assay type: in vivo, rat (Long Evans)
Procedure: In the tests described below, gastric erosions produced in rats by the oral instillation of 1.0 ml of 0.75 N HCl were compared with those in rats which had been pretreated with etintidine or with etintidine and pepstatin.
A modification of the method of Robert et al., [Gastroenterology, 77, 433-443 (1979)] was employed to produce gastric erosions. Adult male, Long Evans rats weighing 280-300 g (Blue Spruce Farms, Alton, New York) were used. The animals were individually caged and food and water were removed 24 and 18 hours, respectively, prior to testing. On the following day, etintidine was administered orally to the animals 30 minutes before 1.0 ml of 0.75 N HCl was instilled into the stomach by gavage. […]
The stomachs were removed from the animals, cut along the greater curvature, opened, rinsed with saline and pinned out flat in a standard position for macroscopic examination and scoring of erosions. The stomachs were photographed with a Polaroid® Close Up camera (Polaroid Corporation) and scoring was determined from the photographs. […]
Data were analyzed using the t-test for unpaired data and ED50 values were calculated from dose response data using probit analysis [Finney, Probit Analysis, 3rd ed., University Press, Cambridge, England (1971)]. […]

[3] = Toxicity profile in pharmacological studies in animals; assay type: in vivo
gastric acid secretion [4] = test: Inhibitory effect on gastric acid secretion versus pepsin activity; conditions: in vivo
histamine H2 -receptor = histamine H2 -receptor (Homo sapiens, UniProt P25021); conditions: Cavanagh et al. 1980; cited from earlier work
[5] = system: meal stimulated gastric acid secretion; conditions: patients with inactive duodenal ulcers; Myers and Peterson 1980; cited from earlier work
[6] = system: stomach ulcers in the pylorus ligated (Shay) rat; test: Ulcer formation in the pylorus ligated (Shay) rat; assay type: in vivo; conditions: 18 hour pylorus ligated rat, 20 mg/kg po, previous studies in applicant's laboratories
pepsin [7] = test: Pepsin activity in the 18 hour pylorus ligated rat; assay type: in vivo; conditions: 20 mg/kg po
[8] = Absorption and fecal excretion after oral administration; assay type: in vivo, animals
[9] = system: stomach ulcers in the pylorus ligated (Shay) rat; conditions: Umezawa et al. 1970; cited from earlier work
duodenal ulcer = conditions: cited from earlier work
gastric ulcer = conditions: cited from earlier work
[10] = all animal species studied; Svendsen et al. 1976; cited from earlier work
[11] = daily oral doses of 700 mg for up to three months; Svendsen et al. 1976; cited from earlier work
pepsin [12] = conditions: cited from earlier work
pepsin [13] = conditions: in the stomach; U.S. Pat. No. 4,101,650; cited from earlier work
[14] = British Medical Journal review 1980
[15] = patients with ulcer dyspepsia, Svendsen et al. 1976

Chain of histamine H2 -receptor (P25021 whole entry, species assumed): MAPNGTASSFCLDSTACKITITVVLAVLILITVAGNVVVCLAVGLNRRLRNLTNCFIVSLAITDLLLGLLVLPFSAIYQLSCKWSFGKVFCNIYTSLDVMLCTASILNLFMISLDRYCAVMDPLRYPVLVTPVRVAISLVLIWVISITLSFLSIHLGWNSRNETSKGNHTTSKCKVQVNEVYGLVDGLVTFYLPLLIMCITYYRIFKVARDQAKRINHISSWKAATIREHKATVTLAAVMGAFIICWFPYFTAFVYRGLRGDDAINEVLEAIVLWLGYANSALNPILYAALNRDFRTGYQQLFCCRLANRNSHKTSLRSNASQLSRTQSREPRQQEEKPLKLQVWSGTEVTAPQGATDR

## CC1(C)[C@@H](OC(=O)CCC(=O)O)CC[C@]2(C)[C@H]3C(=O)C=C4[C@@H]5C[C@@](C)(C(=O)O)CC[C@]5(C)CC[C@@]4(C)[C@]3(C)CC[C@@H]12 [carbenoxolone]
Stress ulceration
  ulcer formation: significantly decreased ulcer formation

## CN/C(=N/CCSCc1nc[nH]c1C)NC#N [cimetidine]
Stress ulceration
  ulcer formation: significantly decreased ulcer formation
Gastric acid secretion [1]; Binder and Donaldson 1978
  effect on pepsin secretion: less marked
Gastric acid secretion [1]; normal volunteers, Burland et al. 1975
  basal and stimulated gastric acid secretion: antagonize both basal and stimulated gastric acid secretion
Gastric acid secretion [1]; patients with duodenal ulcer, Longstreth et al. 1976
  basal and stimulated gastric acid secretion: antagonize both basal and stimulated gastric acid secretion

## C#CCN/C(=N\C#N)NCCSCc1nc[nH]c1C [etintidine]
[2]; etintidine po 30 min before 1.0 ml 0.75 N HCl, combination also received pepstatin 20 mg/kg po 10 min before HCl, FIG. 2
  ED50 for inhibition of gastric erosions: 62 mg/kg
[2]; pretreatment with 17.5, 35, 70 or 140 mg/kg etintidine po
  formation of gastric erosions: decreased the formation of gastric erosions in a dose-related manner
[3]
  toxicity: relatively nontoxic
  toxicity profile compared with cimetidine: substantially the same as that of the commercial H2 -antagonist cimetidine
Gastric acid secretion [4]
  inhibitory effect on gastric acid secretion compared with pepsin activity: significantly greater than on pepsin activity
Histamine H2 -receptor
  potency relative to cimetidine: about twice as potent as cimetidine
[5]
  meal stimulated gastric acid secretion: effectively antagonizes meal stimulated gastric acid secretion

## CC(C)CC(=O)N[C@H](C(=O)N[C@H](C(=O)N[C@@H](CC(C)C)[C@@H](O)CC(=O)N[C@@H](C)C(=O)N[C@@H](CC(C)C)[C@@H](O)CC(=O)O)C(C)C)C(C)C [pepstatin] (Isovaleryl-VV[Sta]A[Sta]-OH)
[6]
  ulcer formation: antagonized ulcer formation
Pepsin [7]
  pepsin activity: completely inhibited pepsin activity
[8]
  absorption upon oral administration: essentially unabsorbed; also recorded: only poorly absorbed
[8]; animal studies, within 72 hours
  fraction of compound excreted in the feces: more than 90%
[9]
  formation of stomach ulcers: prevent the formation of stomach ulcers
Duodenal ulcer; 100 mg seven times a day, double-blind randomized trial, Bonnevie et al. 1979
  healing or symptomatology of duodenal ulcer versus placebo: no significant difference between pepstatin and placebo
Duodenal ulcer; [14]
  benefit / healing in patients with duodenal ulcer: ineffective
  preventing recurrent bleeding in patients admitted with haematemesis and melaena: ineffective
Gastric ulcer; 100 mg seven times a day, double-blind randomized trial, Svendsen et al. 1979
  healing or symptomatology of gastric ulcer versus placebo: not able to detect any influence of pepstatin
[10]
  LD50: exceeded 3000 mg/kg
[11]
  side effects: no side effects were observed
Pepsin [12]; [15]
  gastric acidity: no effect on the gastric acidity
  gastric peptic activity: inhibits gastric peptic activity
Pepsin [12]; ulcer patients, 100 mg doses seven times a day
  duration of inhibition of peptic activity of gastric juice: 18 hours a day
Pepsin [13]
  duration of pepsin suppression: about 1 hours

## Amylopectin
Duodenal ulcer; [14]
  benefit / healing in patients with duodenal ulcer: no significant benefit

## sucralfate
Gastric ulcer; [14]
  benefit in patients with gastric ulcer: none
